The values below come from USRE33906E, “Cyclic carboxamide derivatives and their use as analgesics” (Dr.Lo.Zambeletti S.p.A., priority 1985, dated 1992).

A word on the Ki: it is a dissociation constant, usually derived from enzyme kinetics or from competition with a known ligand. Usually ED50 stands for the dose at which the effect has come halfway, by size or by number of responders.

One assay deals with μ receptor (Cavia porcellus, UniProt A0ACM8Q262). The assay can be described thus: Radio receptor binding to μ sites (3H-DAGO). On the procedure: (§1) RECEPTOR AFFINITY STUDY Tissue preparation
μ receptor, sequence (A0ACM8Q262 1-400): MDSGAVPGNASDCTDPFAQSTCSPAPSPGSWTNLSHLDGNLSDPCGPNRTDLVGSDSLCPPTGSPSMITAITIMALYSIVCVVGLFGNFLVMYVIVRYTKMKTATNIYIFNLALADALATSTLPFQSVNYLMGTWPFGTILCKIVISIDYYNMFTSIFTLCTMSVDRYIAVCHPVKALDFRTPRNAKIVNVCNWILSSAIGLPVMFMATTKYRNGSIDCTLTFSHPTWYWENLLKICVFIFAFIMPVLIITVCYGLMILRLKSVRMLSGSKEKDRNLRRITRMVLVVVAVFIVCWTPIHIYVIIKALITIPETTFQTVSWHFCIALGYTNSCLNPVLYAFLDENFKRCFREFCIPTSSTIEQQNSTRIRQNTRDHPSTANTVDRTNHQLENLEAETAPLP
(§2) Radio receptor binding to μ and K sites is performed on fresh guinea pig brain homogenate prepared according to Kosterlitz (1981).
(§3) Whole brain without cerebellum is homogenized in 50 mM, Tris-buffer (pH 7.4 at 0° C.) and centrifuged at 49,000×g×10 min.
(§4) The pellet is then resuspended in the same buffer, incubated at 37° C. for 45 min. and centrifuged again.
(§5) 1.9 ml of the final homogenate (1:100 in Tris-pH 7.4, 0° C.) is used for the binding assay.
Binding to μ sites (Magnan J., 1982)
^3 H [D-Ala^2, MePhe^4, Gly-ol^5 ] Enkephalin (^3 H-DAGO), an enkephalin analogue that binds selectively to μ receptor, is added to the biological substrate and incubated at 25° C. for 40 min., filtered through Whatman GF-C and washed with ice-cold Tris-buffer.
The filters are then dryed, solubilized in Filtercount and the radioactivity monitored. Non specific binding is determined in the presence of 10^-6 M Naloxone.
(§6) For the calculation of the kinetic parameters of the binding of labelled and unlabelled ligands, the equilibrium dissociation constant (KD), the inhibition constant (Ki) and the maximum number of binding sites (B max) are determined from saturation curves and competition experiments (Hill 1910; Scatchard 1949; Cheng and Prusoff 1973; Gillan et al. 1980).
(§7) A concentration of radioligand near KD is used in the binding assays evaluating our compounds.

For assay [1], the system named is mice (reaction time under heat source). The assay can be described thus: Mouse Tail-flick test. The note with it: sc, 0.5 h; for responders at 1 mg/kg: 1 mg Kg^-1, Table 3, read-out: Mouse tail flick % Protection. In kind it is in vivo, mouse (Male Charles River). On the procedure:
Mouse Tail-flick test (Modified from the procedure published by D'Amour et al., J. Pharm. Exptl. Ther. 72, 74/1941)
Male Charles River mice, average weight 26 g, are used. Selection is carried out before beginning of experiments: only mice whose reaction time is less than 8 sec are used. They are randomly distributed into groups of 10 and dosed with compounds under test, with positive and negative controls being included.
Compounds under test are administered subcutaneously in isotonic saline in a volume of 20 ml. Kg^-1. 30 min later mice are placed again under heat source (Socrel apparatus) and reaction time is recorded.
The analgestic activity of the test compound is expressed as the percent number of mice doubling the initial time within a group. [formula]
For orientation: In hot-plate and tail-flick tests a longer latency is read as antinociception.

Assay [2] concerns mice (p-phenylquinone writhing). Briefly: Mouse p-phenylquinone Writhing test. Type of assay: in vivo, mouse (Male Charles River). The note with it: sc, Table 2. The method, then:
Mouse p-phenylquinone Writhing test (According to Siegmund et al., Proc. Soc. Exptl. Biol. 95, 729/1957)
Male Charles River mice, average weight 26 g, are randomly distributed into group of 10 and are dosed subcutaneously with compounds under test, dissolved in isotonic saline (20 ml.Kg^-1). The experiments are carried out in the presence of positive and negative controls. 20 min after the mince are injected intraperitoneally with p-phenylquinone 0.02%, 10 ml. Kg^-1, maintained at 37° C. in a water bath. The mice are placed in a perspex compartmented observation box and observed for a period of 8 min after injection of p-phenylquinone. The dose-response curve is obtained by basing observation on the all or none response.
(Writhing tests count abdominal constrictions after an irritant is injected.)

For assay [3], the target named is T1, K receptor (Kappa opioid receptor) (Cavia porcellus, UniProt P41144).
T1 construct: fresh guinea pig brain homogenate; from tissue; host or cells: guinea pig whole brain without cerebellum, homogenate
T1 sequence (P41144 whole entry): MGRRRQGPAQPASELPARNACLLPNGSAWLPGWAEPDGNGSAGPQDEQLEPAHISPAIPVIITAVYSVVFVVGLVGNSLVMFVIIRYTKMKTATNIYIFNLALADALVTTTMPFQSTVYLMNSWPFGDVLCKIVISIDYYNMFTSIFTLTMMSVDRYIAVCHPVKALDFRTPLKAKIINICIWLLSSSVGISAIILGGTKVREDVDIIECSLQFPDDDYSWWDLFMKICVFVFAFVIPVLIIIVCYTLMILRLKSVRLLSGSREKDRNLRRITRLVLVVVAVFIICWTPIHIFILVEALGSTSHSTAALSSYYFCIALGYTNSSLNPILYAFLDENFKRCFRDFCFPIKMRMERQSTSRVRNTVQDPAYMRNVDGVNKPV
Briefly: Radio receptor binding to K sites (tritiated Ethylketocyclazocine). Further details: species or system guinea pig. The note with it: for remaining activity at 1 µM: 40 min, 10^-6 M, read-out: Opiate receptor binding K, % residual specific binding at 10^-6 M. On the procedure:
as §1, §2, §3, §4, §5
Binding to K sites (Magnan J., 1982)
The binding of tritiated Ethylketocyclazocine to brain homogenate is measured the in presence of 100 nanomolar D-Ala-D-LeuEnkephalin (DADLE) and 100 nanomolar DAGO, added to saturate the δ and μ opioid receptors respectively.
Final homogenate with solutions of the cold ligand and of the labelled ligand is incubated for 40 min. at 25° C., filtered through Whatman GF/C glass filter discs and washed.
The radioactivity bound to the filters is counted by liquid scintillation spectrophotometry.
MR 2266.500 nM is utilized to determine the saturable binding.
as §6, §7

Assay [4] concerns mice (reaction time under heat source). Briefly: Mouse Tail-flick test. In kind it is in vivo, mouse (Male Charles River). The note with it: oral (os), Table 3.
The mark [5] stands for this setting: s.c., 30 min after dosing, Table 2, read-out: Mouse tail flick ED50.
Setting [6] is: subcutaneous, Table 3, read-out: Mouse tail flick subcutaneous ED50.
[7] abbreviates: guinea pig brain homogenate, Table 3.
Setting [8] is: read-out: Receptor binding μ Ki, guinea pig brain homogenate, Table 2.

Structures are written as SMILES. Where a name gives a salt, the structure may show the parent alone. Read-outs that look alike come from different tables or passages of the source.

As for `CN(C)CC1CCCCN1C(=O)Cc1ccc(Cl)c(Cl)c1` (centres unmarked) [Example 2, 1-(3,4-dichlorophenyl)acetyl-2-dimethylaminomethyl piperidine hydrochloride], the Ki on μ receptor (guinea pig brain homogenate, Table 2, read-out: Receptor binding μ Ki) came out at 3730 nM; in assay [3], 8.21 nM. Further, the results for the ED50 in assay [1] (setting [5]) and in assay [2] were 0.36 mg/kg and 0.65 mg/kg, respectively.
Turning to `O=C(COc1ccc(Cl)cc1)N1CCCCC1CN1CCCC1` (centres unmarked) [Example 17, 1-(4-chlorophenoxyacetyl)-2-(1-pyrrolidinylmethyl) piperidine hydrochloride], the responders at 1 mg/kg in assay [1] (subcutaneous) was 80%. The ED50 in assay [1] (setting [6]) amounted to 91 mg/kg. For the same compound, the Ki in assay [3] was 9.54 nM.
For the compound `O=C(Cc1ccc(Cl)cc1)N1CCCCC1CN1CCCC1` (centres unmarked) [Example 14, 1-(4-chlorophenylacetyl)-2-(1-pyrrolidinylmethyl) piperidine hydrochloride], the responders at 1 mg/kg in assay [1] (subcutaneous) turned out to be 40%. Besides, the remaining activity at 1 µM in assay [3] (setting [7]) came to 61%.
With `O=C(Cc1ccc(Cl)c(Cl)c1)N1CCCCCC1CN1CCCC1` (centres unmarked) [Example 8, 1-(3,4-dichlorophenylacetyl)-2-(1-pyrrolidinylmethyl)-hexahydroazepine hydrochloride], in assay [1] (setting [5]), the ED50 came to 8.76 mg/kg. The compound further yielded a Ki in assay [3] of 6.51 nM.
For `O=C(Cc1ccc(Cl)c(Cl)c1)N1CCCC[C@H]1CN1CCCC1` [Example 4, (2S)-1-(3,4-dichlorophenylacetyl)-2-(1-pyrrolidinylmethyl)piperidine hydrochloride hydrate], the Ki was determined as 1560 nM at μ receptor (setting [8]) and 0.77 nM in assay [3]. The ED50 in assay [1] (setting [5]) was 0.055 mg/kg; in assay [2], 0.12 mg/kg.
The corresponding values for `CN(C)C[C@@H]1CCCCN1C(=O)Cc1ccc(Cl)c(Cl)c1` [Example 5, (2S)-1-(3,4-dichlorophenylacetyl)-2-dimethylamino methylpiperidine sesquihydrate] are over 1 nM, 5.01 nM, 1.03 mg/kg and 0.44 mg/kg.
As to `COc1ccc(CC(=O)N2CCCCC2CN2CCCC2)cc1OC` (centres unmarked) [Example 15, 1-(3-4-dimethoxyphenylacetyl)-2-(1-pyrrolidinylmethyl) piperidine hydrochloride], in assay [1] (subcutaneous), the responders at 1 mg/kg was 40%. Moreover, in assay [3] (setting [7]), the remaining activity at 1 µM is 100%.
On to `CCC(C(=O)N1CCCCC1CN1CCCC1)c1ccccc1` (single isomer, unassigned; isomer b) [Example 16, 1-(2-phenylbutyroil)-2-(1pyrrolidinylmethyl) piperidine hydrochloride. Isomer B], for which the responders at 1 mg/kg in assay [1] (subcutaneous) is 40%.
Turning to `Cc1ccc(CC(=O)N2CCCCC2CN2CCCC2)cc1C` (centres unmarked) [Example 11, 1-(3,4-dimethylphenylacetyl)-2-(1-pyrrolidinylmethyl) piperidine hydrochloride], the responders at 1 mg/kg in assay [1] (subcutaneous) was 60%. In assay [3] (setting [7]), the remaining activity at 1 µM was found to be 67%.
The corresponding values for `O=C(Cc1ccc2c(c1)CCC2)N1CCCCC1CN1CCCC1` (centres unmarked) [Example 12, 1-(5-indaneacetyl)-2-(1-pyrrolidinylmethyl)piperidine hydrochloride] are 60% and 62%.
Regarding `O=C(Cc1ccc(Cl)c(Cl)c1)N1CCCCC1CN1CCCC1` (centres unmarked) [Example 1, 1-(3,4-dichlorophenyl)acetyl-2-(1-pyrrolidinyl)methyl piperidine hydrochloride], the Ki on μ receptor (setting [8]) was 1860 nM; in assay [3] (guinea pig brain homogenate, tritiated Ethylketocyclazocine with DADLE and DAGO 100 nM each, Table 2, read-out: Receptor binding K Ki) it was 1.83 nM. Moreover, the ED50 in assay [1] (setting [5]) stood at 0.11 mg/kg; in assay [2], 0.2 mg/kg.
With `O=C(Cc1ccc(Cl)c(Cl)c1)N1CCCC[C@@H]1CN1CCCC1` [Example 3, (2R)-1-(3,4-dichlorophenylacetyl)-2-(1-pyrrolidinylmethyl)piperidine hydrochloride hydrate], the Ki stood at 7110 nM on μ receptor (setting [8]) and 62.1 nM in assay [3]. In addition, the ED50 is 17.5 mg/kg in assay [1] (setting [5]) and 12.4 mg/kg in assay [2].
As for `O=C(Cc1ccccc1)N1CCCCC1CN1CCCC1` (centres unmarked) [Example 10, 1-phenylacetyl-2-(1-pyrrolidinylmethyl)piperidine hydrochloride], the responders at 1 mg/kg in assay [1] (subcutaneous) amounted to 40%. Besides, the remaining activity at 1 µM in assay [3] (setting [7]) came out at 100%.
As to `O=C(Cc1ccc2c(c1)CCCC2)N1CCCCC1CN1CCCC1` (centres unmarked) [Example 13, 1-(6-tetralylacetyl)-2-(1-pyrrolidinylmethyl)piperidine hydrochloride], the Ki at μ receptor (read-out: Opiate receptor binding μ Ki, guinea pig brain homogenate, Table 3) turned out to be 500 nM; in assay [3] (guinea pig brain homogenate, tritiated Ethylketocyclazocine, Table 3, read-out: Opiate receptor binding K Ki), 5.72 nM. Moreover, the responders at 1 mg/kg in assay [1] (subcutaneous) is 80%. In addition, the values for the ED50 in assay [1] (setting [6]) and in assay [4] were 45 mg/kg and 3.91 mg/kg, respectively.
